Literature values as cited in US10369157B1 (priority 2018, dated 2019).

How the values were obtained:
rats = conditions: rat, in vivo
[1] = tested on: adrenergic alpha-2 receptors

SMILES: Oc1cc(Cl)c(NC2=NCCN2)c(Cl)c1 [p-hydroxyclonidine]
- Pharmacological activity of the major metabolite (patients; human, in vivo): pharmacologically inactive

SMILES: CCOC(=O)C1(c2ccccc2)CCN(C)CC1 [pethidine]
- Minimum ratio of DL50 to DE50 (rats): 4.6

SMILES: CNC1(c2ccccc2Cl)CCCCC1=O (centres unmarked) [Ketamine, 2-(2-chlorophenyl)-2-(methylamino)cyclohexan-1-one]
- Dose recovered through excreted feces (studies in humans): approximately 3%
- Dose recovered through urine (studies in humans): approximately 91%
- Clinical effects observed on patients following administration (patients; human, in vivo): increased blood pressure, increased muscle tone (may resemble catatonia), opening of the eyes (usually accompanied by nystagmus), and increased myocardial oxygen consumption

SMILES: Clc1cccc(Cl)c1NC1=NCCN1 [Clonidine, N-(2,6-dichlorophenyl)-4,5-dihydro-1H-imidazol-2-amine]
- Absorption by the human body (in vivo): well absorbed
- Effect on pulse rate in treated patients (patients; most patients): decrease in pulse rate

SMILES: Cc1ncc2n1-c1ccc(Cl)cc1C(c1ccccc1F)=NC2 [Midazolam, 8-chloro-6-(2-fluorophenyl)-1-methyl-4H-imidazo[1,5-a][1,4]benzodiazepine]
- Passage through the placenta into fetal circulation (humans): slowly pass through the placenta
- Presence in human milk (humans): small amounts

SMILES: CN1CC[C@]23c4c5ccc(O)c4O[C@H]2[C@@H](O)C=C[C@H]3[C@H]1C5 [morphine]
- Minimum ratio of DL50 to DE50 (rats): 69.5

SMILES: Cc1cccc([C@H](C)c2cnc[nH]2)c1C [Dexmedotomidine, 5-[(1S)-1-(2,3-dimethylphenyl)ethyl]-1H-imidazole]
- Affinity towards adrenergic alpha-2 receptors compared with Clonidine [1]: increased affinity

SMILES: OCc1ncc2n1-c1ccc(Cl)cc1C(c1ccccc1F)=NC2 [alpha-hydroxymidazolam]
- Elimination half-life (metabolite): < 1 h
- Plasma concentrations relative to the parent compound (metabolite of the sleep inducing agent): approximately 12%
- Contribution to the effects of the sleep inducing agent (patients; intravenous administration): approximately 10%
